Source: patent US20250326771A1, “PIPERAZINE DERIVATIVES USEFUL IN HIV THERAPY” (VIIV HEALTHCARE COMPANY, priority 2022, published 2025)
Read-outs that look alike come from different tables or passages of the source.

Key:
[1] = system: Jurkat HIV-luciferase clones; assay: Jurkat latency reversal assay; format: cell-based; details: Homo sapiens, 48 h; Jurkat latency reversal assay potency; read-out: Jurkat pEC50 (converted)
How it was run: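 Three pooled Jurkat reporter clones, each with one or two integrated HIV-luciferase proviruses, 5,000 cells/well; duplicate 14-point titrations starting at 10 μM; 48 h, 37° C, then Steady-Glo luminescence; four-parameter logistic analysis yields EC50 and percent maximal activation against DMSO vehicle.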

cIAP1-BIR3 = cIAP1-BIR3 (Homo sapiens (Human), UniProt Q13490); assay: BIR binding assay (FRET competition), cIAP1 BIR3; details: for cIAP1 BIR3 vs BIR2 separation window: fold separation (FS) for cIAP1
How it was run: (§1)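 615/665 nm FRET ratio. Compound, His-domain and 200 nM AF647-SMAC peptide incubated 60 min, then 2 nM Eu-W1024 for 30 min. Domains: cIAP1-BIR3 50 nM; XIAP-BIR3 100 nM; cIAP1-BIR2, cIAP2-BIR2 325 nM each. 15-pt 3-fold series; variable-slope IC50.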

cIAP1-BIR2 = cIAP1-BIR2 (Homo sapiens (Human), UniProt Q13490); assay: BIR binding assay (FRET competition), cIAP1 BIR2
How it was run: as §1

cIAP2-BIR3 = cIAP2-BIR3 (Homo sapiens (Human), UniProt Q13489); assay: BIR binding assay (FRET competition), cIAP2 BIR3; details: for cIAP2 BIR3 vs BIR2 separation window: fold separation (FS) for cIAP2
cIAP2-BIR2 = cIAP2-BIR2 (Homo sapiens (Human), UniProt Q13489); assay: BIR binding assay (FRET competition), cIAP2 BIR2
How it was run: as §1

XIAP-BIR3 = XIAP-BIR3 (Homo sapiens (Human), UniProt P98170); assay: BIR binding assay (FRET competition), XIAP BIR3; details: for XIAP BIR3 vs BIR2 separation window: fold separation (FS) for XIAP
How it was run: as §1

XIAP-BIR2 = XIAP-BIR2 (Homo sapiens (Human), UniProt P98170); assay: BIR binding assay (FRET competition), XIAP BIR2; details: read-out: XIAP BIR2 (pIC50) (converted)
How it was run: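 Competitive TR-FRET used His-tagged XIAP-BIR2 (200 nM) and 200 nM AlexaFluor647-labelled AVPIAQKSE SMAC peptide in HEPES buffer pH 7.4 with CHAPS, glycerol and DTT, incubated 60 min before 30 min with 2 nM Eu-W1024. The 615/665 nm ratio from a 15-point, 3-fold series was fit with a four-parameter model for IC50/pIC50.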

cIAP1-BIR2, sequence (Q13490 173-257): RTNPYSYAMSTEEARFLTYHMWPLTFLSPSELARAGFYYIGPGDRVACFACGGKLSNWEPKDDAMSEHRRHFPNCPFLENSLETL
cIAP1-BIR3, sequence (Q13490 253-363): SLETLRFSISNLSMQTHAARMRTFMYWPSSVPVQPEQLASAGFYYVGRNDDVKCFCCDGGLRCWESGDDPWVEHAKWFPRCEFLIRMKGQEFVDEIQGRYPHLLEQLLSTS
XIAP-BIR3, sequence (P98170 241-356): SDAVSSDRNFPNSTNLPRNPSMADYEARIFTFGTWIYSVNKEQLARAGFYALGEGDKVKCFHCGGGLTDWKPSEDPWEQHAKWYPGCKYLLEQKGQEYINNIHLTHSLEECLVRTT
XIAP-BIR2, sequence (P98170 124-240): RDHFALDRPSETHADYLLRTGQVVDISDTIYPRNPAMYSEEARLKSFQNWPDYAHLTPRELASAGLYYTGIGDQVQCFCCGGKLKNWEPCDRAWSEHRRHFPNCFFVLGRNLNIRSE
cIAP2-BIR3, sequence (Q13489 238-349): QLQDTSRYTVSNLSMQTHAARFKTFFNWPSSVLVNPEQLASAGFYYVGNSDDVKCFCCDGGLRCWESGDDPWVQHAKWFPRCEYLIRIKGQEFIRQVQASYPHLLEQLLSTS
cIAP2-BIR2, sequence (Q13489 158-242): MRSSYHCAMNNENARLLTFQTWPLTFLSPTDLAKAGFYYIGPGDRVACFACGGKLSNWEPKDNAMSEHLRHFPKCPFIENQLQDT

Structure (SMILES)	EC50 [1] [nM]	IC50 (cIAP1-BIR3) [nM]	cIAP1 BIR3 vs BIR2 separation window (cIAP1-BIR3)	IC50 (cIAP1-BIR2) [nM]	IC50 (cIAP2-BIR3) [nM]	cIAP2 BIR3 vs BIR2 separation window (cIAP2-BIR3)	IC50 (cIAP2-BIR2) [nM]	IC50 (XIAP-BIR3) [nM]	XIAP BIR3 vs BIR2 separation window (XIAP-BIR3)	IC50 (XIAP-BIR2; FRET competition binding) [nM]	IC50 (XIAP-BIR2; FRET competition) [nM]
C[C@@H]1CN(CC(=O)N2CC(C)(C)c3[nH]c(=O)c(Cc4ccc(F)cc4)cc32)[C@@H](CN2CCN(C(=O)c3ccc4cc(C(=O)N5CCN(C[C@H]6CN[C@H](C)CN6CC(=O)N6CC(C)(C)c7[nH]c(=O)c(Cc8ccc(F)cc8)cc76)[C@H](C)C5)ccc4c3)C[C@H]2C)CN1 [Example 18, 1,1′-(2,2′-((3R,3′R,6R,6′R)-(((2R,2′R)-(naphthalene-2,6-dicarbonyl)bis(2-methylpiperazine-4,1-diyl))bis(methylene))bis(3-methylpiperazine-6,1-diyl))bis(acetyl))bis(6-(4-fluorobenzyl)-3,3-dimethyl-1,2,3,4-tetrahydro-5H-pyrrolo[3,2-b]pyridin-5-one)]	12.6 to 63.1	1.38 to 7.94	+++ (10,000>FS>1,000)	1000 to 3160	1.38 to 7.94	+++ (10,000>FS>1,000)	1000 to 3160	1.38 to 7.94	++++ (FS>10,000)	10000 to 51300	–
Cc1ccc(Oc2cc3c([nH]c2=O)C(C)(C)CN3C(=O)CN2C[C@@H](C)NC[C@@H]2CN2CCO[C@H](C(=O)NCc3ccc(CNC(=O)[C@@H]4CN(C[C@H]5CN[C@H](C)CN5CC(=O)N5CC(C)(C)c6[nH]c(=O)c(Oc7ccc(C)cc7)cc65)CCO4)cc3)C2)cc1 [Compound 184, (2S,2′S)-N,N′-(1,4-phenylenebis(methylene)) bis(4-(((2R,5R)-1-(2-(3,3-dimethyl-5-oxo-6-(p-tolyloxy)-2,3,4,5-tetrahydro-1H-pyrrolo[3,2-b]pyridin-1-yl)-2-oxoethyl)-5-methylpiperazin-2-yl)methyl)morpholine-2-carboxamide)]	316 to 3310	7.94 to 15.8	+++ (10,000>FS>1,000)	3160 to 10000	1.38 to 7.94	++++ (FS>10,000)	3160 to 10000	31.6 to 501	+++ (10,000>FS>1,000)	–	10000 to 51300
C[C@@H]1CN(CC(=O)N2CC(C)(C)c3[nH]c(=O)c(Cc4ccc(F)cc4)cc32)[C@@H](CN2CCO[C@H](C(=O)N(C)CCCCN(C)C(=O)[C@@H]3CN(C[C@H]4CN[C@H](C)CN4CC(=O)N4CC(C)(C)c5[nH]c(=O)c(Cc6ccc(F)cc6)cc54)CCO3)C2)CN1 [Example 127, (2S,2'S)-N,N′-(butane-1,4-diyl)bis(4-(((2R,5R)-1-(2-(6-(4-fluorobenzyl)-3,3-dimethyl-5-oxo-2,3,4,5-tetrahydro-1H-pyrrolo[3,2-b]pyridin-1-yl)-2-oxoethyl)-5-methylpiperazin-2-yl)methyl)-N-methylmorpholine-2-carboxamide)]	63.1 to 316	7.94 to 15.8	+++ (10,000>FS>1,000)	1000 to 3160	7.94 to 15.8	+++ (10,000>FS>1,000)	1000 to 3160	7.94 to 15.8	++++ (FS>10,000)	10000 to 51300	–
C[C@@H]1CN(CC(=O)N2CC(C)(C)c3[nH]c(=O)c(Cc4ccc(F)cc4)cc32)[C@@H](CN2CCO[C@@H](COc3cccc(OC[C@H]4CN(C[C@H]5CN[C@H](C)CN5CC(=O)N5CC(C)(C)c6[nH]c(=O)c(Cc7ccc(F)cc7)cc65)CCO4)c3)C2)CN1 [Example 112, 1,1′-(2,2′-((3R,3′R,6R,6′R)-(((2R,2′R)-((1,3-phenylenebis(oxy))bis(methylene))bis(morpholine-2,4-diyl))bis(methylene))bis(3-methylpiperazine-6,1-diyl))bis(acetyl))bis(6-(4-fluorobenzyl)-3,3-dimethyl-1,2,3,4-tetrahydro-5H-pyrrolo[3,2-b]pyridin-5-one)]	12.6 to 63.1	7.94 to 15.8	+++ (10,000>FS>1,000)	3160 to 10000	7.94 to 15.8	+++ (10,000>FS>1,000)	1000 to 3160	15.8 to 31.6	+++ (10,000>FS>1,000)	10000 to 51300	–
